One assay relates to T-24. As to the kind of experiment: Antitumor activity against human T24 cells. The class given is functional, cell-based.
The nature of assay [1]: Antitumor activity against mouse keratinocytes. The note with it: Keratinocyte. The class given is cell-based.

The structures appear in SMILES notation. In brackets after ≈: the same amount, converted by molar mass.

For orientation: IC50 means the concentration needed to halve the response being measured. A high value points to a need for much substance. Take `O=C(/C=C/c1ccc(O)cc1)OC[C@H]1O[C@@H](OCCc2ccc(O)cc2)[C@H](O)[C@@H](O)[C@@H]1O` [EUTIGOSIDE A]: the figures for the IC50 (in the assay on T-24; in assay [1]) were 28.7 µg/mL (≈ 64.3 µM) and 9.2 µg/mL (≈ 20.6 µM), respectively.

For `O=C1C=CC(O)(CCO[C@@H]2O[C@H](COC(=O)/C=C/c3ccc(O)cc3)[C@@H](O)[C@H](O)[C@H]2O)C=C1` [EUTIGOSIDE B], the figures for the IC50 (in the assay with T-24; in assay [1]) were 31.9 µg/mL (≈ 69 µM) and 9.4 µg/mL (≈ 20.3 µM), respectively.

As for `O=C1C=CC(O)(CCO[C@@H]2O[C@H](COC(=O)/C=C/c3ccccc3)[C@@H](O)[C@H](O)[C@H]2O)C=C1` [EUTIGOSIDE C], the IC50 in the assay with T-24 was 29.3 µg/mL (≈ 65.6 µM); in assay [1], 12.6 µg/mL (≈ 28.2 µM).

Values taken from ChEMBL document CHEMBL1149740, “New phenolic glucosides from the leaves of Eurya tigang” (J Nat Prod, 1992).
